Here are results for three molecules from patent publication US5066783A, “Antiviral peptides and means for treating herpes infections” (priority 1988, dated 1991).

The test system of one experiment is HSV-2. In words: HSV-2 replication (virus yield) in serum-starved BHK 21/C13 cells. The class given is cell-based. The conditions noted are these: 1 mM.
The next experiment has as its system HSV-1. The conditions noted are these: A. Alarcon et al., Antiviral Research, 4, 231 (1984); cited from earlier work.
The subject of the next experiment is HSV-1 strain MP-12. Put plainly: Guinea pig cutaneous herpes infection model, HSV-1. The conditions noted are these: for skin lesion score: HSV-1 group, mean score. The class given is in vivo.
A further experiment concerns HSV-2 strain HG-52. Put plainly: Guinea pig cutaneous herpes infection model, HSV-2. Type of experiment: in vivo. The conditions noted are these: for skin lesion score: HSV-2 group, mean score.
The target of experiment [1] is HSV-2 ribonucleotide reductase (Human herpesvirus 2, UniProt P89462). Put plainly: HSV-2 ribonucleotide reductase inhibition. The class given is biochemical. The conditions noted are these: data not shown. An excerpt:
The precipitate was removed by centrifugation.

Experiment [2] concerns cellular ribonucleotide reductase from 96-V-2(600) cells. The conditions noted are these: up to 1 mM; FIG. 1.
The test system of experiment [3] is cellular ribonucleotide reductase from BHK21/C13 cells. The conditions noted are these: up to 1 mM; data not shown.
Experiment [4] concerns the target ribonucleotide reductase from HSV-1 (strain F)-infected BHK-21/C13 cells (Human herpesvirus 1, UniProt P08543). Put plainly: HSV-1 ribonucleotide reductase (CDP reductase) inhibition. The conditions noted are these: for % CDP REDUCTASE ACTIVITY: 75 μg protein extract.
Experiment [5] deals with HSV-1 ribonucleotide reductase. In words: Neutralization of HSV-1 ribonucleotide reductase by anti-nonapeptide IgG, preadsorbed with nonapeptide. The conditions noted are these: FIG. 2.
Where [6] appears, read: 4 hours post infection, A (after absorption).
Setting [7] is: 4 hours post infection, B (before absorption).
[8] abbreviates: 12 hours post infection, A (after absorption).
[9] abbreviates: 12 hours post infection, B (before absorption).
Setting [10] is: 24 hours post infection, A (after absorption).
Where [11] appears, read: 24 hours post infection, B (before absorption).
[12] abbreviates: 36 hours post infection, A (after absorption).
Setting [13] is: 36 hours post infection, B (before absorption).

Where a SMILES comes first, the peptide text is derived from it. Bridges are numbered along the chain shown (N, C = ends). [ ]: non-standard residue; d: D form. The star is where a group is joined. Ileψ(thiazoline)Cys = CC[C@H](C)[C@H](N)C1=N[C@H](C(=O)*)CS1; dOrn = NCCC[C@@H](N)C(=O)O

Sequence of ribonucleotide reductase from HSV-1 (strain F)-infected BHK-21/C13 cells (P08543 whole entry): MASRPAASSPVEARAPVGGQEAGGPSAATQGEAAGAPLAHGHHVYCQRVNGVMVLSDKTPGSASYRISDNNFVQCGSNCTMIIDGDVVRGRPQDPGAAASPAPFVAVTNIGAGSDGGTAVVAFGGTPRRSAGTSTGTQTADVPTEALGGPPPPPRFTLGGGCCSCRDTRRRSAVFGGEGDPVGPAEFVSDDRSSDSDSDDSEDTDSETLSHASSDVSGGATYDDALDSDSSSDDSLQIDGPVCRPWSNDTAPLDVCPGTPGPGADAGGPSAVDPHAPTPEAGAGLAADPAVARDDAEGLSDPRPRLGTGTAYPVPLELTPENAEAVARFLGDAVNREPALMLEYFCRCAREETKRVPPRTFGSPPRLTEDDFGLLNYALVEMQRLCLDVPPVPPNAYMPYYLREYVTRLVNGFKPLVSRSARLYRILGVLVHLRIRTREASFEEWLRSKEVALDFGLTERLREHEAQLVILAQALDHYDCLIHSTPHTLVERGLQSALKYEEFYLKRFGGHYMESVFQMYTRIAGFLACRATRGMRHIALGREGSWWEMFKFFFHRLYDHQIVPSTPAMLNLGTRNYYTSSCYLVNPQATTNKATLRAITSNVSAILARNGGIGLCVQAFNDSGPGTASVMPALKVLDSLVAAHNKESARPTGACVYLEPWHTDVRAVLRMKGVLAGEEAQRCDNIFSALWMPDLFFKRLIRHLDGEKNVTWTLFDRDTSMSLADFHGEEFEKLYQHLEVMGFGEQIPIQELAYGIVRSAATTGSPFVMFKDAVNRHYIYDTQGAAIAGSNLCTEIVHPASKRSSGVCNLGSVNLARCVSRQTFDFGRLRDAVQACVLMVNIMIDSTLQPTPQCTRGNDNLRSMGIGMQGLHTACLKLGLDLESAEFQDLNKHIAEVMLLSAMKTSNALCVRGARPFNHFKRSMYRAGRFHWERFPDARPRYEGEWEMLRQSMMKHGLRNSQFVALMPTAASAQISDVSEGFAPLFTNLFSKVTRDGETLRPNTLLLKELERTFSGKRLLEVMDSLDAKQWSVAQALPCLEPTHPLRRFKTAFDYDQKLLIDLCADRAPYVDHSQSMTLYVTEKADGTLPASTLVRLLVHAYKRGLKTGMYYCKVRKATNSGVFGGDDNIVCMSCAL
Sequence of HSV-2 ribonucleotide reductase (P89462 whole entry): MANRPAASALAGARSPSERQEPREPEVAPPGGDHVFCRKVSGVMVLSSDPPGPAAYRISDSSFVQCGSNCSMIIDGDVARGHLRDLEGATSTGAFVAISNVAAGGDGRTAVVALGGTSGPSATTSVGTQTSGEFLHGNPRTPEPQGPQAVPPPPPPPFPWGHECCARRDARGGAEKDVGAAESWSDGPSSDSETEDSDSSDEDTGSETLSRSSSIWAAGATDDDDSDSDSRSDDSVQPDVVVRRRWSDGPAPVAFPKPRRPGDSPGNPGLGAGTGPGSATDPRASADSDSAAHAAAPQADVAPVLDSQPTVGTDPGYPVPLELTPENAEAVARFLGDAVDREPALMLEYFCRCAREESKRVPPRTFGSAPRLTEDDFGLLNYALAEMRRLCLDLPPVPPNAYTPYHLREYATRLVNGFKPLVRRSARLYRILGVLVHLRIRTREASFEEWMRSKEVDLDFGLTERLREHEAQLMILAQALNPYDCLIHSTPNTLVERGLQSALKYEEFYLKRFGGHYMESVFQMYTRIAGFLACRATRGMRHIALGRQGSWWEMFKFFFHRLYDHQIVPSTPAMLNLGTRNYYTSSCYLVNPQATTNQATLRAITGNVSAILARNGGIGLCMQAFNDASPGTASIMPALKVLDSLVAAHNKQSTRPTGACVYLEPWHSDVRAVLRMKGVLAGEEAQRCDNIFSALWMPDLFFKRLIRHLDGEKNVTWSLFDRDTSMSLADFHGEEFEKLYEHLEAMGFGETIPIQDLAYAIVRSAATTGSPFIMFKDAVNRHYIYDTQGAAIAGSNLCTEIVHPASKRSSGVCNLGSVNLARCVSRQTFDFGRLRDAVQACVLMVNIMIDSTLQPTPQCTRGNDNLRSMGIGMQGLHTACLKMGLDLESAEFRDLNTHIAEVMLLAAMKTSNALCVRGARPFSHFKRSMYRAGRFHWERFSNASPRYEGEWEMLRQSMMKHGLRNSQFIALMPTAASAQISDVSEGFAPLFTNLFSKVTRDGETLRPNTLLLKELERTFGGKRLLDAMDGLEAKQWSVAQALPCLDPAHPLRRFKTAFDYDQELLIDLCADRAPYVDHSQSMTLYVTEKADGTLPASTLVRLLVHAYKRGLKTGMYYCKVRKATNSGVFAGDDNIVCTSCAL

Take `CC[C@H](C)[C@H](N)C1=N[C@H](C(=O)N[C@@H](CC(C)C)C(=O)N[C@H](CCC(=O)O)C(=O)N[C@H](C(=O)N[C@H]2CCCCNC(=O)[C@H](CC(N)=O)NC(=O)[C@@H](CC(=O)O)NC(=O)[C@H](Cc3cnc[nH]3)NC(=O)[C@@H](Cc3ccccc3)NC(=O)[C@H]([C@@H](C)CC)NC(=O)[C@@H](CCCN)NC2=O)[C@@H](C)CC)CS1` [Bacitracin, bacitracin, reference compound] ({Ileψ(thiazoline)Cys}-L[dE]IK[dOrn]I[dF]H[dD]N; lactam 4-C): the virus titer came out at 0.0005 PFU/cell in the experiment on HSV-2 (setting [6]); 0.0007 PFU/cell in the experiment on HSV-2 (setting [7]); 0.007 PFU/cell in the experiment with HSV-2 (setting [8]); 0.005 PFU/cell in the experiment with HSV-2 (setting [9]); 0.06 PFU/cell in the experiment on HSV-2 (setting [10]); 0.06 PFU/cell in the experiment on HSV-2 (setting [11]). Moreover, the virus titer was found to be 0.06 PFU/cell in the experiment on HSV-2 (setting [12]) and 0.03 PFU/cell in the experiment with HSV-2 (setting [13]). Moreover, in the experiment on HSV-1, the “activity against HSV-1 when used alone” value was “inactive”.
Regarding `Nc1nc2c(ncn2COCCO)c(=O)[nH]1` [Acyclovir, acyclovir], the skin lesion score was found to be 0.50 in the experiment with HSV-1 strain MP-12 (day 1, topical twice daily); 0.50 with HSV-1 strain MP-12 (day 2, topical twice daily); 0.28 in the experiment on HSV-1 strain MP-12 (day 3, topical twice daily); 0.20 in the experiment with HSV-1 strain MP-12 (day 4, topical twice daily); 0.20 in the experiment with HSV-1 strain MP-12 (day 5, topical twice daily); 0.20 with HSV-1 strain MP-12 (day 6, topical twice daily). For the same molecule, the skin lesion score stood at 0.15 with HSV-1 strain MP-12 (day 7, topical twice daily); 0.00 in the experiment on HSV-1 strain MP-12 (day 8, topical twice daily); 0.00 in the experiment on HSV-1 strain MP-12 (day 9, topical twice daily); 0.00 in the experiment with HSV-1 strain MP-12 (day 10, topical twice daily); 0.00 with HSV-1 strain MP-12 (day 11, topical twice daily); 0.50 in the experiment on HSV-2 strain HG-52 (day 1, topical twice daily). Further, the skin lesion score with HSV-2 strain HG-52 (day 2, topical twice daily) is given as 0.50; with HSV-2 strain HG-52 (day 3, topical twice daily), 0.63; with HSV-2 strain HG-52 (day 4, topical twice daily), 0.67; with HSV-2 strain HG-52 (day 5, topical twice daily), 1.23; with HSV-2 strain HG-52 (day 6, topical twice daily), 0.57; in the experiment on HSV-2 strain HG-52 (day 7, topical twice daily) it was 0.40. Besides, the skin lesion score with HSV-2 strain HG-52 (day 8, topical twice daily) amounted to 0.13; in the experiment with HSV-2 strain HG-52 (day 9, topical twice daily) it was 0.13; in the experiment on HSV-2 strain HG-52 (day 10, topical twice daily), 0.00; with HSV-2 strain HG-52 (day 11, topical twice daily), 0.00.
In the case of `CC(C)C[C@H](NC(=O)[C@H](CC(=O)O)NC(=O)[C@H](CC(N)=O)NC(=O)[C@@H](NC(=O)[C@@H](NC(=O)[C@H](C)NC(=O)CNC(=O)[C@H](C)NC(=O)[C@@H](N)Cc1ccc(O)cc1)C(C)C)C(C)C)C(=O)O` [HSV 7-15, L-tyrosyl-L-alanyl-glycyl-L-alanyl-L-valyl-L-valyl-L-asparagyl-L-aspartyl- L-leucine], in experiment [1], the “inhibition curve for the HSV-2 enzyme compared with HSV-1” value is reported as “nearly identical”. In addition, the “shortening the healing time and diminishing the symptoms of HSV-1 infection” value in the experiment on HSV-1 strain MP-12 (summary of TABLE III) is listed as “effective”. Moreover, the “shortening healing time and alleviating the symptoms of HSV-2” value in the experiment with HSV-2 strain HG-52 (summary of TABLE IV) is on record as “effective”. The virus titer turned out to be 0.001 PFU/cell with HSV-2 (setting [6]); 0.0006 PFU/cell with HSV-2 (setting [7]); 0.01 PFU/cell with HSV-2 (setting [8]); 0.006 PFU/cell in the experiment with HSV-2 (setting [9]); 0.5 PFU/cell in the experiment on HSV-2 (setting [10]); 0.4 PFU/cell in the experiment with HSV-2 (setting [11]). The virus titer is 1.1 PFU/cell with HSV-2 (setting [12]) and 0.8 PFU/cell in the experiment on HSV-2 (setting [13]). Besides, the “sensitivity of cellular enzyme to the peptide” value in [2] and in experiment [3] was “completely insensitive” throughout. In addition, the “% CDP REDUCTASE ACTIVITY” value is 96% in experiment [4] (10 μM peptide); 94% in experiment [4] (25 μM peptide); 80% in [4] (50 μM peptide); 45% in experiment [4] (100 μM peptide); 9% in [4] (400 μM peptide). In addition, the “concentration giving total inhibition” value in experiment [4] (FIG. 1, 50 μg viral enzyme) worked out at 400 µM. Besides, in experiment [5], the “nonapeptide concentration at which equivalence was reached (IgG neutralizing capacity eliminated)” value was found to be 10 µM.
